Results reported in ChEMBL document CHEMBL1128550, “Nonclassical 2,4-diamino-6-(aminomethyl)-5,6,7,8-tetrahydroquinazoline antifolates: synthesis and biological activities” (J Med Chem, 1995).

How the values were obtained:
[1] = target: T1, Bifunctional dihydrofolate reductase-thymidylate synthase (Toxoplasma gondii, UniProt Q07422); test: Inhibitory activity against purified Dihydrofolate reductase from Toxoplasma gondii.
T1 sequence (Q07422 whole entry): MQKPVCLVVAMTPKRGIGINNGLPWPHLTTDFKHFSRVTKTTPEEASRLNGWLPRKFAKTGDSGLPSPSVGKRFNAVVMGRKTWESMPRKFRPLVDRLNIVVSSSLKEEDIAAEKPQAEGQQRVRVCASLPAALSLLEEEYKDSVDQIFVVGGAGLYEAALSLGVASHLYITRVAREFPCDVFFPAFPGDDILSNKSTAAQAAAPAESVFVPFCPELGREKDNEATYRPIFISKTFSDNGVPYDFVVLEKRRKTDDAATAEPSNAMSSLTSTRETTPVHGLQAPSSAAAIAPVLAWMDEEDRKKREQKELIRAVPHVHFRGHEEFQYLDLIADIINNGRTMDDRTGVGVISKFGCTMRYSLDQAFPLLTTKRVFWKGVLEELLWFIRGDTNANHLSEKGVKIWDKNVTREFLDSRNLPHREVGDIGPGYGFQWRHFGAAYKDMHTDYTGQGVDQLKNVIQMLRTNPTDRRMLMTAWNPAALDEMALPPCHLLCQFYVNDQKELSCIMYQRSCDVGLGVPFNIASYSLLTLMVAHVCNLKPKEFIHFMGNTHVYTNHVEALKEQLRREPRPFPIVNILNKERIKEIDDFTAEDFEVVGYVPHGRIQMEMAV

Dihydrofolate reductase [2] = target: T2, Dihydrofolate reductase (Pneumocystis carinii, UniProt P16184); test: Inhibitory activity against purified dihydrofolate reductase from Pneumocystis carinii.
T2 sequence (P16184 whole entry): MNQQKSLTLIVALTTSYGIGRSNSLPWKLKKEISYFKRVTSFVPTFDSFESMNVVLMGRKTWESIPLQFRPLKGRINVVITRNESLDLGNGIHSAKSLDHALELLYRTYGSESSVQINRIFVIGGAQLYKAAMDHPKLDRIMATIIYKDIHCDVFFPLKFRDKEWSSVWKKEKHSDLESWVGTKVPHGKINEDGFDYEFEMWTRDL

Dihydrofolate reductase [3] = target: T3, Dihydrofolate reductase (Rattus norvegicus, UniProt Q920D2); test: Inhibitory activity against purified dihydrofolate reductase from rat
T3 sequence (Q920D2 whole entry): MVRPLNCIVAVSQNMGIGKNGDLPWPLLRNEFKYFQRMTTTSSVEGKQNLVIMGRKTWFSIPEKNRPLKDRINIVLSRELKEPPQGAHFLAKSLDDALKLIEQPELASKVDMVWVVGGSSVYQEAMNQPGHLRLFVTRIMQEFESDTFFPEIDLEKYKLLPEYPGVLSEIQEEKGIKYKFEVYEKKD

Dihydrofolate reductase [4] = target: T3, Dihydrofolate reductase
Description: Inhibitory activity against purified DHFR (Dihydrofolate reductase) from rat

Dihydrofolate reductase [5] = target: T2, Dihydrofolate reductase
Description: Inhibitory activity against purified DHFR (Dihydrofolate reductase) from Pneumocystis carinii.

[6] = target: T1, Bifunctional dihydrofolate reductase-thymidylate synthase; test: Inhibitory activity against purified DHFR (Dihydrofolate reductase) from Toxoplasma gondii.
[7] = target: T1, Bifunctional dihydrofolate reductase-thymidylate synthase; test: Inhibitory activity against purified DHFR (Dihydrofolate reductase) from Toxoplasma gondii
NCI-H460 = test: In vitro activity of compound against non-small cell lung cancer NCI-H460; assay type: functional; settings: Homo sapiens
K562 = test: In vitro activity of compound against leukemia K-562 cell line; assay type: functional, Homo sapiens

## C#CCN(CC1CCc2nc(N)nc(N)c2C1)c1cc(OC)c(OC)c(OC)c1 (stereo not given)
[1]
  IC50: 12 nM
Dihydrofolate reductase [2]
  IC50: 119 nM
Dihydrofolate reductase [3]
  IC50: 74 nM

## Nc1nc(N)c2c(n1)CCC(CN1CCc3ccccc31)C2 (stereo not given)
Dihydrofolate reductase [4]
  IC50: 160 nM
Dihydrofolate reductase [5]
  IC50: 210 nM
[6]
  IC50: 27 nM

## CCOc1ccc(OCC)c(NCC2CCc3nc(N)nc(N)c3C2)c1 (stereo not given)
Dihydrofolate reductase [4]
  IC50: 1470 nM
Dihydrofolate reductase [5]
  IC50: 1570 nM
[6]
  IC50: 140 nM

## Nc1nc(N)c2c(n1)CCC(CNc1ccc(Cl)c(Cl)c1)C2 (stereo not given)
[1]
  IC50: 110 nM
Dihydrofolate reductase [2]
  IC50: 6800 nM
Dihydrofolate reductase [3]
  IC50: 150 nM

## Nc1nc(N)c2c(n1)CCC(CNc1cccc3ccccc13)C2 (stereo not given)
Dihydrofolate reductase [4]
  IC50: 139 nM
[7]
  IC50: 36 nM
NCI-H460
  GI50: 50 nM
Dihydrofolate reductase [5]
  IC50: 517 nM

## Nc1nc(N)c2c(n1)CCC(CNc1cc(Cl)ccc1Cl)C2 (stereo not given)
Dihydrofolate reductase [4]
  IC50: 240 nM
Dihydrofolate reductase [5]
  IC50: 410 nM
[6]
  IC50: 97 nM

## CN(CC1CCc2nc(N)nc(N)c2C1)c1cccc2ccccc12 (stereo not given)
K562
  GI50: 40 nM
[1]
  IC50: 23 nM
Dihydrofolate reductase [2]
  IC50: 100 nM
Dihydrofolate reductase [3]
  IC50: 47 nM

## CN(CC1CCc2nc(N)nc(N)c2C1)c1ccc(Cl)c(Cl)c1 (stereo not given)
[1]
  IC50: 21 nM
Dihydrofolate reductase [2]
  IC50: 246 nM
Dihydrofolate reductase [3]
  IC50: 34 nM

## CCN(CC1CCc2nc(N)nc(N)c2C1)c1cc(OC)ccc1OC (stereo not given)
[1]
  IC50: 17 nM
Dihydrofolate reductase [2]
  IC50: 114 nM
Dihydrofolate reductase [3]
  IC50: 71 nM

## COc1ccc(OC)c(N(C)CC2CCc3nc(N)nc(N)c3C2)c1 (stereo not given)
[1]
  IC50: 15 nM
Dihydrofolate reductase [2]
  IC50: 300 nM
Dihydrofolate reductase [3]
  IC50: 260 nM

## Nc1nc(N)c2c(n1)CCC(CNc1ccc(Cl)cc1)C2 (stereo not given)
Dihydrofolate reductase [4]
  IC50: 128 nM
Dihydrofolate reductase [5]
  IC50: 940 nM
[6]
  IC50: 78 nM

## COc1cc(CN(C)CC2CCc3nc(N)nc(N)c3C2)cc(OC)c1OC (stereo not given)
Dihydrofolate reductase [4]
  IC50: 1630 nM
Dihydrofolate reductase [5]
  IC50: 3100 nM
[6]
  IC50: 330 nM

## CN(CC1CCc2nc(N)nc(N)c2C1)c1ccc(Cl)cc1 (stereo not given)
[1]
  IC50: 22 nM
Dihydrofolate reductase [2]
  IC50: 171 nM
Dihydrofolate reductase [3]
  IC50: 67 nM

## COc1cc(N(C)CC2CCc3nc(N)nc(N)c3C2)cc(OC)c1OC (stereo not given)
[1]
  IC50: 7 nM
Dihydrofolate reductase [2]
  IC50: 95 nM
Dihydrofolate reductase [3]
  IC50: 38 nM

## Nc1nc(N)c2c(n1)CCC(CNc1cccc(Br)c1)C2 (stereo not given)
[1]
  IC50: 30 nM
Dihydrofolate reductase [2]
  IC50: 330 nM
Dihydrofolate reductase [3]
  IC50: 227 nM

## CCOc1ccc(OCC)c(N(C)CC2CCc3nc(N)nc(N)c3C2)c1 (stereo not given)
[1]
  IC50: 17 nM
Dihydrofolate reductase [2]
  IC50: 319 nM
Dihydrofolate reductase [3]
  IC50: 116 nM

## Nc1nc(N)c2c(n1)CCC(CNc1c(Cl)cccc1Cl)C2 (stereo not given)
Dihydrofolate reductase [4]
  IC50: 109 nM
Dihydrofolate reductase [5]
  IC50: 502 nM
[6]
  IC50: 9.9 nM

## COc1cc(CNCC2CCc3nc(N)nc(N)c3C2)cc(OC)c1OC (stereo not given)
Dihydrofolate reductase [2]
  IC50: 18500 nM
Dihydrofolate reductase [3]
  IC50: 12700 nM

## COc1ccc(OC)c(NCC2CCc3nc(N)nc(N)c3C2)c1 (stereo not given)
[1]
  IC50: 181 nM
Dihydrofolate reductase [2]
  IC50: 1670 nM
Dihydrofolate reductase [3]
  IC50: 560 nM

## COc1cc(NCC2CCc3nc(N)nc(N)c3C2)cc(OC)c1OC (stereo not given)
Dihydrofolate reductase [4]
  IC50: 290 nM
[6]
  IC50: 54 nM
